Measured values as given in the NIST ThermoML archive (doi:10.1021/je900596d).

Conditions: Liquid; for mass density: Vibrating tube method

FC(F)=C(F)C(F)(F)F [hexafluoropropene]
Conditions	mass density [kg/m3]	vapor or sublimation pressure [kPa]
353.13 K, 6254.1 kPa	1084.82	–
353.13 K, 6293.2 kPa	1085.83	–
353.13 K, 6333.5 kPa	1086.9	–
353.13 K, 6371.8 kPa	1087.85	–
353.13 K, 6409 kPa	1088.79	–
353.13 K, 6445.8 kPa	1089.69	–
353.13 K, 6484.6 kPa	1090.62	–
353.13 K, 6524.7 kPa	1091.6	–
353.13 K, 6563.9 kPa	1092.58	–
353.13 K, 6604.4 kPa	1093.48	–
353.13 K, 6642.7 kPa	1094.43	–
353.13 K, 6683.7 kPa	1095.45	–
353.13 K, 6726.1 kPa	1096.44	–
353.13 K, 6764 kPa	1097.33	–
353.13 K, 6802.8 kPa	1098.22	–
353.13 K, 6841.6 kPa	1099.15	–
353.13 K, 6882 kPa	1100.04	–
353.13 K, 6922.2 kPa	1101.01	–
353.13 K, 6960.8 kPa	1101.88	–
353.13 K, 7001.3 kPa	1102.71	–
353.13 K, 7038.1 kPa	1103.6	–
353.13 K, 7076.1 kPa	1104.43	–
353.13 K, 7114.4 kPa	1105.3	–
353.13 K, 7154.8 kPa	1106.21	–
353.13 K, 7191.9 kPa	1106.87	–
353.13 K, 7231.5 kPa	1107.79	–
353.13 K, 7270.9 kPa	1108.59	–
353.13 K, 7309.7 kPa	1109.52	–
353.13 K, 7347.2 kPa	1110.31	–
353.13 K, 7384.6 kPa	1111.14	–
353.13 K, 7426.6 kPa	1111.94	–
353.13 K, 7521.7 kPa	1113.95	–
353.13 K, 7570.3 kPa	1114.91	–
353.13 K, 7620.7 kPa	1116.02	–
353.13 K, 7669.4 kPa	1116.98	–
353.13 K, 7719.8 kPa	1117.99	–
353.13 K, 7771.4 kPa	1119.1	–
353.13 K, 7821.6 kPa	1120.08	–
353.13 K, 7875 kPa	1121.14	–
353.13 K, 7925.8 kPa	1122.03	–
353.13 K, 7977.1 kPa	1123.21	–
353.13 K, 8027.6 kPa	1124.05	–
353.13 K, 8077.8 kPa	1124.94	–
353.13 K, 8128 kPa	1125.99	–
353.13 K, 8179.4 kPa	1126.95	–
353.13 K, 8229.7 kPa	1127.86	–
353.13 K, 8281.6 kPa	1128.88	–
353.13 K, 8333.3 kPa	1129.8	–
353.13 K, 8384.4 kPa	1130.91	–
353.13 K, 8434.2 kPa	1131.83	–
353.13 K, 8483.8 kPa	1132.74	–
353.13 K, 8533 kPa	1133.6	–
353.13 K, 8585.1 kPa	1134.64	–
353.13 K, 8636.6 kPa	1135.48	–
353.13 K, 8688.1 kPa	1136.4	–
353.13 K, 8739.4 kPa	1137.27	–
353.13 K, 8787.9 kPa	1138.25	–
353.13 K, 8838.8 kPa	1138.97	–
353.13 K, 8890.6 kPa	1140.08	–
353.13 K, 8940.9 kPa	1140.78	–
353.13 K, 8990.5 kPa	1141.72	–
353.13 K, 9042.5 kPa	1142.55	–
353.13 K, 9093.8 kPa	1143.46	–
353.13 K, 9145.5 kPa	1144.29	–
353.13 K, 9199.3 kPa	1145.07	–
353.13 K, 9251.5 kPa	1145.95	–
353.13 K, 9300.6 kPa	1146.86	–
353.13 K, 9353.4 kPa	1147.68	–
353.13 K, 9405.2 kPa	1148.61	–
353.13 K, 9453.7 kPa	1149.26	–
353.13 K, 9503.3 kPa	1150.03	–
353.13 K, 9555.6 kPa	1150.83	–
353.13 K, 9607.5 kPa	1151.69	–
353.13 K, 9658.7 kPa	1152.54	–
353.13 K, 9709.8 kPa	1153.31	–
353.13 K, 9762.3 kPa	1154.19	–
353.13 K, 9811.9 kPa	1154.85	–
353.13 K, 9863.5 kPa	1155.62	–
353.13 K, 9915.1 kPa	1156.42	–
353.13 K, 9969.2 kPa	1157.38	–
353.23 K, Closed cell (Static) method	–	2782.3
355.18 K, 2917.9 kPa	845.6	–
355.18 K, 2920.4 kPa	846.43	–
355.18 K, 2923.2 kPa	847.74	–
355.18 K, 2925.7 kPa	848.75	–
355.18 K, 2927.7 kPa	849.49	–
355.18 K, 2929.8 kPa	850.21	–
355.18 K, 2931.8 kPa	850.86	–
355.18 K, 2933.8 kPa	851.6	–
355.18 K, 2936.9 kPa	852.8	–
355.18 K, 2939.2 kPa	853.64	–
355.18 K, 2941.8 kPa	854.46	–
355.18 K, 2944.4 kPa	855.06	–
355.18 K, 2946.6 kPa	855.85	–
355.18 K, 2948.8 kPa	856.52	–
355.18 K, 2952.8 kPa	857.85	–
355.18 K, 2960 kPa	859.85	–
355.18 K, 2967.7 kPa	861.92	–
355.18 K, 2975.4 kPa	863.9	–
355.18 K, 2989.1 kPa	868.46	–
355.18 K, 2995.9 kPa	870.43	–
355.18 K, 3004.5 kPa	872.46	–
355.18 K, 3019.2 kPa	876.04	–
355.18 K, 3027.3 kPa	878.11	–
355.18 K, 3033.9 kPa	879.53	–
355.18 K, 3039.9 kPa	880.6	–
355.18 K, 3094.7 kPa	890.53	–
355.18 K, 3105.5 kPa	892.47	–
355.18 K, 3126.6 kPa	896.05	–
355.18 K, 3136.9 kPa	897.86	–
355.18 K, 3146.9 kPa	899.37	–
355.18 K, 3157.8 kPa	901.09	–
355.18 K, 3167.8 kPa	902.86	–
355.18 K, 3178.7 kPa	904.31	–
355.18 K, 3189.5 kPa	906.01	–
355.18 K, 3200.1 kPa	907.48	–
355.18 K, 3210.7 kPa	909	–
355.18 K, 3221.2 kPa	910.46	–
355.18 K, 3231.6 kPa	911.83	–
355.18 K, 3252.1 kPa	914.62	–
355.18 K, 3263.1 kPa	916.04	–
355.18 K, 3273.1 kPa	917.41	–
355.18 K, 3283.4 kPa	918.63	–
355.18 K, 3294.3 kPa	920.14	–
355.18 K, 3304.3 kPa	921.35	–
355.18 K, 3325.4 kPa	923.75	–
355.18 K, 3347.5 kPa	926.36	–
355.18 K, 3368.1 kPa	928.74	–
355.18 K, 3388.8 kPa	930.98	–
355.18 K, 3410.2 kPa	933.28	–
355.18 K, 3453.4 kPa	937.53	–
355.18 K, 3496.3 kPa	941.66	–
355.18 K, 3516.9 kPa	943.53	–
